Results from US8772237B2, “Compositions and methods for counteracting effects of reactive oxygen species and free radicals” (Ischemix, Inc., priority 1999, dated 2014).
Ends that are not written are not given here.

Tests used:
[1] = test system: transcription factor AP-1; test: Electrophoretic mobility shift assay (EMSA) for AP-1 activation in primary rat neurons / cortical cultures; format: cell-based
Experimental: Nuclear extracts for electrophoretic mobility shift assays (EMSAs) were prepared as described previously (Adams et al., J. Leukocyte Biol., 62: 865-873 (1997)) using 1.0-2.0×10^7 cells per sample. All buffers were freshly supplemented with dithiothreitol (DTT, 0.5 mM), protease inhibitors: PMSF (0.5 mM), chymostatin, peptstatin-A, aprotinin, antipain, leupeptin (each at 1 μg/ml), and phosphatase inhibitors: NaF (10 mM), ZnCl2 (1 mM), sodium orthovanadate (1 mM), and sodium pyrophosphate (5 mM). Aliquots of the final dialyzates were stored at −80° C. and discarded after use.
AP-1 transcription factor activation was assayed using an electrophoretic mobility shift assay (EMSA), as described by Adams et al., J. Leukoc. Biol., 62:865-873 (1997)). Cultures of primary rat neurons (Cornell-Bell et al., Cell Calcium, 12: 185-204 (1991)) were stimulated for 3 hours with various concentrations (0, 1, 10, 100 ng/ml) of peptide CMX-9236. Nuclear extracts prepared as described above were separated by gel electophoresis on non-denaturing gels and subjected to the EMSA procedure. This EMSA used an AP-1 synthetic duplex probe (Angel, P., 1987, Cell 49:729-739) having the sequence 5′-[…] (SEQ ID NO:33) and its antisense copy (complement strand), which were end-labeled with P^32 using polynucleotide kinase and (γ-P^32)-ATP. For the EMSA reaction, the labeled probe (0.5 pmol) was mixed with 3 μg of nuclear extract protein in a solution containing 10 mM Tris-HCl, pH 7.5, 50 mM NaCl, 1 mM EDTA, 1 mM dithiothreitol, 5% glycerol, 0.02% β-mercaptoethanol, and 1 μg of poly-dI/dC (Pharmacia). Reaction mixtures were incubated at 25° C. for 20 minutes to allow complete complex formation by the duplex with its appropriate AP-1 protein. The mixture was then electrophoresed under non-denaturing conditions through 4% polyacrylamide gels in 0.5×TBE buffer (45 mM Trisma base, 45 mM boric acid, 1 mM EDTA). The gels were dried on 3 mm paper. Bands were visualized by autoradiography at −80° C. with one intensifying screen and quantified by laser densitometry. The upregulation of AP-1 and the activation and upregulation process of AP-1 was compared to control cultures.
Primary cortical cell cultures were grown to confluence and used in in vitro cultures for determining the effects of various representative peptide compounds on upregulation of AP-1. […] Extracts were prepared from the nuclei isolated from the primary culture homogenates, purified, and analyzed for the presence of specific transcription factors using the electrophoretic mobility shift assay (EMSA) method. The binding of ^32P-labeled duplex DNA probes specific for activator protein-1 (AP-1) or nuclear factor κB (NF-κB) was analyzed and quantified by autoradiography. After a 3-hour incubation of the cultures with 1 ng/ml of the peptide CMX-9236 there was a 15-fold increase of AP-1 relative to […] control cultures. […] Thus, a small peptide compound that is less than 20 amino acids long can simulate the properties of large growth factors such as NGF and BDNF, which exist as dimers of protein chains with molecular weights of 13,259 and 13,500, respectively.

[2] = test system: middle cerebral artery (MCA) permanent occlusion stroke model; test: Permanent MCA 24-hour occlusion stroke model; format: in vivo, Sprague-Dawley rats; settings: rat, in vivo
Experimental: The in vivo neuroprotective effects of CMX-9236 were investigated in both temporary and permanent occlusion stroke models in Sprague-Dawley rats using an intraluminal suture of the middle cerebral artery (MCA) occlusion method (Zea Longa et al., Stroke, 20: 84 (1989)). Briefly, a 4-0 silicone-coated suture was inserted through the right common carotid artery to block the MCA orifice. In the temporary model, CMX-9236 (6.2 mg/kg/hr) or vehicle was administered via the femoral vein at 30 minutes after the start of a 2-hour occlusion for a 4-hour continuous infusion; the rats were then reperfused by withdrawing the suture at […] after the MCA occlusion. All experiments were performed in a blinded and randomized manner, and rectal temperature was maintained at 37° C. The animals were sacrificed, and their brains were removed, sectioned into six 2-mm-thick coronal slices and stained with 2,3,5-triphenyltetrazolium chloride solution (Bederson et al., Stroke, 17:1304 (1986)) to visualize the extent of brain damage for the calculation of the corrected hemispheric infarct volumes (Nagasawa and Kogure, Stroke, 20:1037 (1989); Li et al., J. Cereb. Blood Flow Metab., 17:1132 (1997)). […] This represents a significant reduction of infarct size (35±5%, p=0.01, student t-test) for the CMX-9236-treated group in the temporary occlusion model. There was also a 58+11% improvement in the neurological scoring (Minematsu et al., Neurology, 42:235 (1992)) for the peptide-treated group versus controls at the end of 24 hours.
In the permanent occlusion stroke model, the blood flow to the MCA territory was blocked for the total 24-hour period. A continuous i.v. infusion (0.5 ml/hr) of the CMX-9236 peptide (2.04 mg/kg/hr) or vehicle was initiated at 30 minutes after occlusion for 6 hours, followed by a bolus i.v. infusion of CMX-9236 (4.0 mg/kg in 0.5 ml delivered over 10 minutes) or vehicle at 12 hours after occlusion. The corrected infarct volumes were 127.5±18 mm^3 versus 216±18 mm^3 for drug-treated animals and controls, respectively. This represents a significant decrease (41±5%, p=0.003, student t-test) in infarct size for the drug-treated group as compared to the vehicle-treated control group (n=10 per group) in the permanent model, indicating a substantial rescue of brain tissue. These findings indicate that CMX-9236 has neuroprotective properties post-trauma in vivo, reducing the brain damage generated by cerebral ischemia.

[3] = test system: superoxide dismutase-1 (SOD-1) mRNA; test: RT-PCR upregulation of SOD-1 mRNA in rat primary cortical cell cultures; format: cell-based; settings: 10 ng/ml, 3 hours
Experimental: The RT-PCR method (see, for example, Innis et al., PCR Protocols: A Guide to Methods and Applications, (Academic Press, San Diego, 1990)) was used to investigate the upregulation of the specific mRNA that codes for the enzyme superoxide dismutase (SOD).
(§1) Primary cortical cultures were obtained by growing newborn rat brain cortical cells in Delbecco's modified Eagle medium supplemented with 25 μg/ml of gentamycin and 10% fetal calf serum. The cells were isolated from the E-21 cortex of rat brain, plated at a density of 1×10^5 per ml and grown to confluence within four to five days in an atmosphere containing air and 5% CO2 at 37° C. as described in Cornell-Bell et al., Science, 247: 470-473 (1990) and Cell Calcium, 12: 185-204 (1991). Cultures were grown in 20 ml flasks as a monolayer and then exposed to various concentrations of peptides for studies of the effects of peptides on upregulation of genes for SOD and CAT and on the transmigration of transcription factor AP-1 to cell nuclei.
Primary cultures of rat brain cortical cells were incubated with 100 ng/ml of peptide compound CMX-9236 for durations of 0 to 48 hours. mRNA was isolated from the cytoplasmic fraction of lysed cells according to standard methods (Angel et al., Cell 49:729-739, 1987). The RNA was incubated according to the RT-PCR protocol with two strands, 20 nucleotides long, one for the sense and one from the antisense strand. The sequences were selected to be unique for superoxide dismutase-1 (SOD-1), and to span one intron segment. […] The sequence of the two probe segments of the oligo dT segments for SOD are as follows: anti-sense strand, […] (SEQ ID NO:29), and sense strand, […] (SEQ ID NO:30). These span a sequence of 208 base pairs (bp) on the primary SOD sequence. The mixture was then treated with reverse transcriptase to obtain the cDNA according to standard PCR methods. The cDNA was then analyzed by electrophoresis and separated according to sequence lengths on a non-denaturing 5% polyacrylamide gel. The electrophoretically separated molecules were treated with ethidium bromide to stain double-stranded DNA fragments. These were visualized by ultraviolet illumination and photographed. The gels were then analyzed by a laser scanning fluorescence detector to quantitate the amount of messenger RNA for the extent of upregulation of SOD message and its time course of synthesis as a function of stimulation by CMX-9236. Similar methods of analysis were used for other peptides.

catalase (CAT) protein = test: Western immunoblot of CAT protein in rat primary cortical cultures; format: cell-based; settings: Dose 28 pmol/ml, 5 hours at 37° C.
Experimental: (§2) Tissue culture experiments were carried out using primary cultures of rat brain cortical cells as previously described above in Example 2. Primary cultures from embryonic rat brain isolated at E-21 (21 day embryos) and incubated for five hours with various doses: 1, 10, 100 ng/ml of CMX-99672. Cytoplasmic proteins were isolated and analyzed for upregulation of SOD and CAT by Western immunoblots as described above. […] The Western blot was scanned to quantify the fold-increase in SOD production in cell cultures treated with the CMX-99672 peptide compound.
(§3) Representative peptide compounds were tested at various doses and compared for their ability to upregulate expression of genes for SOD and/or CAT in rat primary cortical cultures basically as described above. Cultures were incubated with a peptide compound for 5 hours at 37° C. Cytoplasmic protein fractions were prepared as described above. Cytoplasmic proteins were separated by gel electrophoresis and analyzed by Western immunoblots using antisera to SOD and CAT, respectively (Rockland, Inc., Gilbertsville, Pa.).

catalase (CAT) mRNA = test: RT-PCR upregulation of catalase (CAT) mRNA in primary rat cortical cultures; format: cell-based; settings: 10 ng/ml, 3 hours
Text: Peptide compounds of the invention may also upregulate mRNA for catalase (CAT). Experiments using the RT-PCR methods to detect upregulation of CAT mRNA in primary rat cortical brain cultures treated with various representative peptide compounds, i.e., CMX-9236, CMX-9963, and CMX-9967. The catalase probe duplex consisted of a sense primer having the sequence […] (SEQ ID NO:31) and antisense primer having the sequence […] (SEQ ID NO:32) flanking a 95 bp region of the CAT DNA.
Primary rat brain cortical cell cultures were incubated with 100 ng/ml of the peptide compound CMX-9236 for 0, 0.5, 1, 2, 3, 6, 12, 24, and 48 hours. […] The upregulation of CAT mRNA was maximal at 3 hours after the addition of the peptide compound, and it decreased back to control levels at 48 hours. GAPDH was the internal standard in these experiments. […] A 13-fold increase in CAT mRNA levels was observed (over control) of CAT mRNA occurred when primary rat brain cortical cultures were incubated with 100 ng/ml of CMX-9236 for 3 hours.

[4] = test system: superoxide dismutase (SOD) protein; test: Western immunoblot of SOD protein in rat brain primary cortical cultures; format: cell-based; settings: for SOD: 5 hours at 37° C.
Experimental: as §1, with “nuclei. […]” for “nuclei.”
as §2
as §3, with “Pa.). […]” for “Pa.).”

[5] = test system: middle cerebral artery (MCA) permanent occlusion stroke model; test: Permanent MCA 24-hour occlusion stroke model; format: in vivo, Sprague-Dawley rats; settings: Dose 0.05 mg/hr

maximum increase of CAT mRNA (catalase (CAT) mRNA)	Substance	activation / upregulation of AP-1 (in words) [1]	neuroprotective effect in permanent MCA assay (in words) [2]	maximum increase of SOD-1 mRNA [3]	CAT (catalase (CAT) protein)	SOD ([4]; Dose 6.7 pmol/ml)	SOD ([4]; Dose 28 pmol/ml)	fold-increase in SOD-1 protein (intensity of antibody binding) ([4]; cells treated 5 hours with 10 and 100 ng/ml)	Percent Neurological Rescue [5]	Percent Rescue (percent decrease in infarct size vs vehicle controls) [5]
–	KKETLQFR [CMX-8933, described in U.S. Pat. No. 5,545,719]	upregulated AP-1	positive neuroprotective effect	–	–	–	–	–	–	–
–	KKQYKLGSKTGPGQ [CMX-9901]	upregulated AP-1	positive neuroprotective effect	–	–	–	–	–	–	–
~7 fold	[Ac]-Asp Gly Asp Gly Asp Phe Ala (Ac-DGDGDFA) [CMX-9963]	–	–	around 10 fold	700 % Control	1873 % Control	–	–	–	–
6 fold	[Ac]-Asp Gly Asp [CMX-9967]	–	–	6 fold	200 % Control	–	1220 % Control	≥ 20 fold	40 ± 10%	20 ± 6%
